Key:
ducksalad = test: Test B flooded paddy test; type: in vivo, Heteranthera limosa; settings: Heteranthera limosa, 360 h, 125 g ai/ha, applied to paddy water at 2-leaf stage, visual rating after 13 to 15 d, scale 0 (no effect) to 100 (complete control), read-out: Plant response rating, Ducksalad, Flood
In short: (§1)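 Pots were flooded to 3 cm above the soil at treatment, and compounds were applied directly into the paddy water. That depth was held throughout. After 13 to 15 d in a greenhouse, plants were rated visually against untreated controls.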

barnyardgrass [1] = test: Test C postemergence; type: in vivo, Echinochloa crus-galli
In short: (§2)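 Seeds were planted in loam soil plus sand and sprayed preemergence. In parallel, potted plants in a peat-based medium were sprayed postemergence at 2 to 18 cm (1- to 4-leaf stage). Compounds were formulated in non-phytotoxic solvent with surfactant.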

pigweed = test: Test A preemergence; type: in vivo, Amaranthus retroflexus; settings: Amaranthus retroflexus, pre-emergence, 240 h, 0 to 100 scale (0 no effect, 100 complete control), read-out: Plant response rating, Pigweed
In short: (§3)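 Herbicidal response was scored on plants treated pre- or postemergence with surfactant-containing, non-phytotoxic solvent formulations. Preemergence meant a directed spray onto soil (loam–sand) holding sown seed; postemergence plants were at one to two leaves.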

galium = test: Test C postemergence; type: in vivo, Galium aparine
In short: as §2

sedge, umbrella = test: Test B flooded paddy test; type: in vivo, Cyperus difformis; settings: Cyperus difformis, 360 h, 125 g ai/ha, applied to paddy water at 2-leaf stage, visual rating after 13 to 15 d, scale 0 (no effect) to 100 (complete control), read-out: Plant response rating, Sedge, Umbrella, Flood
In short: as §1

buckwheat, wild = test: Test D preemergence; type: in vivo, Polygonum convolvulus; settings: scale 0 to 100
Source text: Seeds of plant species selected from bluegrass (annual bluegrass, Poa annua), blackgrass (Alopecurus myosuroides), canarygrass (Phalaris minor), chickweed (common chickweed, Stellaria media), galium (catchweed bedstraw, Galium aparine), bromegrass, down (downy bromegrass, Bromus tectorum), Russian thistle (Salsola kali), field poppy (Papaver rhoeas), field violet (Viola arvensis), foxtail, green (green foxtail, Setaria viridis), deadnettle (henbit deadnettle, Lamium amplexicaule), ryegrass, Ital. (Italian ryegrass, Lolium multiflorum), kochia (Kochia scoparia), lambsquarters (Chenopodium album), oilseed rape (Brassica napus), pigweed (Amaranthus retroflexus), chamomile (scentless chamomile, Matricaria inodora), speedwell (bird's-eye speedwell, Veronica persica), barley, spring (spring barley, Hordeum vulgare), wheat, spring (spring wheat, Triticum aestivum), buckwheat, wild (wild buckwheat, Polygonum convolvulus), wild mustard (Sinapis arvensis), oat, wild (wild oat, Avena fatua), radish, wild (wild radish, Raphanus raphanistrum), […]), barley, winter (winter barley, Hordeum vulgare), and wheat, winter (winter wheat, Triticum aestivum) were planted into a silt loam soil and treated preemergence with test chemicals formulated in a non-phytotoxic solvent mixture which included a surfactant. At the same time, these species were planted in pots containing Sunshine Redi-Earth® planting medium comprising spaghnum peat moss, vermiculite, starter nutrients and dolomitic limestone and treated with postemergence applications of the test chemicals formulated in the same manner. Plants ranged in height from 2 to 18 cm (1- to 4-leaf stage). Treated plants and controls were maintained in a controlled growth environment for 14 to 21 d after which time all species were compared to controls and visually evaluated. […] A dash (-) response means no test result.

soybean = test: Test C postemergence; type: in vivo, Glycine max
In short: as §2

waterhemp = test: Test C postemergence; type: in vivo, Amaranthus rudis
In short: as §2

corn = test: Test C postemergence; type: in vivo, Zea mays
In short: as §2

blackgrass = test: Test C postemergence; type: in vivo, Alopecurus myosuroides
In short: as §2

barnyardgrass [2] = test: Test A preemergence; type: in vivo, Echinochloa crus-galli; settings: Echinochloa crus-galli, pre-emergence, 240 h, 0 to 100 scale (0 no effect, 100 complete control), read-out: Plant response rating, Barnyardgrass
In short: as §3

foxtail, giant = test: Test A postemergence; type: in vivo, Setaria faberii; settings: Setaria faberi, post-emergence, 240 h, 0 to 100 scale (0 no effect, 100 complete control), approx. 10 d, read-out: Plant response rating, Foxtail, Giant
In short: as §3

wheat = test: Test A postemergence; type: in vivo, Triticum aestivum; settings: Triticum aestivum, post-emergence, 240 h, 0 to 100 scale (0 no effect, 100 complete control), approx. 10 d, read-out: Plant response rating, Wheat
In short: as §3

ryegrass, Italian = test: Test C postemergence; type: in vivo, Lolium multiflorum
In short: as §2

SMILES: CCc1nc(-c2ccc(C(F)(F)F)cc2)nn1Cc1ccnc(C(F)(F)F)c1 [Compound 1, 4-[[5-ethyl-3-[4-(trifluoromethyl)phenyl]-1H-1,2,4-triazol-1-yl]methyl]-2-(trifluoromethyl)pyridine]
- pest or weed control at 125 g/ha (ducksalad): 20%
- Plant response rating (scale of 0 to 100 where 0 is no effect and 100 is complete control) (barnyardgrass [1]; 31 g ai/ha): 10
- Plant response rating (scale of 0 to 100 where 0 is no effect and 100 is complete control) (barnyardgrass [1]; 62 g ai/ha): 15
- Plant response rating (scale of 0 to 100 where 0 is no effect and 100 is complete control) (barnyardgrass [1]; 125 g ai/ha): 15
- Plant response rating (scale of 0 to 100 where 0 is no effect and 100 is complete control) (barnyardgrass [1]; 250 g ai/ha): 50
- pest or weed control at 125 g/ha (pigweed; 125 g ai/ha): 100%
- pest or weed control at 500 g/ha (pigweed; 500 g ai/ha, approx. 10 d): 100%
- Plant response rating (scale of 0 to 100 where 0 is no effect and 100 is complete control) (galium; 31 g ai/ha): 80
- Plant response rating (scale of 0 to 100 where 0 is no effect and 100 is complete control) (galium; 62 g ai/ha): 80
- Plant response rating (scale of 0 to 100 where 0 is no effect and 100 is complete control) (galium; 125 g ai/ha): 90
- Plant response rating (scale of 0 to 100 where 0 is no effect and 100 is complete control) (galium; 250 g ai/ha): 90
- pest or weed control at 125 g/ha (sedge, umbrella): 75%
- Plant response rating: Buckwheat, Wild (buckwheat, wild; 31 g ai/ha): 60
- Plant response rating: Buckwheat, Wild (buckwheat, wild; 62 g ai/ha): 70
- Plant response rating: Buckwheat, Wild (buckwheat, wild; 125 g ai/ha): 65
- Plant response rating: Buckwheat, Wild (buckwheat, wild; 250 g ai/ha): 100
- Plant response rating (scale of 0 to 100 where 0 is no effect and 100 is complete control) (soybean; 31 g ai/ha): 20
- Plant response rating (scale of 0 to 100 where 0 is no effect and 100 is complete control) (soybean; 62 g ai/ha): 35
- Plant response rating (scale of 0 to 100 where 0 is no effect and 100 is complete control) (soybean; 125 g ai/ha): 50
- Plant response rating (scale of 0 to 100 where 0 is no effect and 100 is complete control) (soybean; 250 g ai/ha): 50
- Plant response rating (scale of 0 to 100 where 0 is no effect and 100 is complete control) (waterhemp; 31 g ai/ha): 85
- Plant response rating (scale of 0 to 100 where 0 is no effect and 100 is complete control) (waterhemp; 62 g ai/ha): 85
- Plant response rating (scale of 0 to 100 where 0 is no effect and 100 is complete control) (waterhemp; 125 g ai/ha): 90
- Plant response rating (scale of 0 to 100 where 0 is no effect and 100 is complete control) (waterhemp; 250 g ai/ha): 90
- Plant response rating (scale of 0 to 100 where 0 is no effect and 100 is complete control) (corn; 31 g ai/ha): 15
- Plant response rating (scale of 0 to 100 where 0 is no effect and 100 is complete control) (corn; 62 g ai/ha): 15
- Plant response rating (scale of 0 to 100 where 0 is no effect and 100 is complete control) (corn; 125 g ai/ha): 20
- Plant response rating (scale of 0 to 100 where 0 is no effect and 100 is complete control) (corn; 250 g ai/ha): 20
- Plant response rating (scale of 0 to 100 where 0 is no effect and 100 is complete control) (blackgrass; 31 g ai/ha): 5
- Plant response rating (scale of 0 to 100 where 0 is no effect and 100 is complete control) (blackgrass; 62 g ai/ha): 5
- Plant response rating (scale of 0 to 100 where 0 is no effect and 100 is complete control) (blackgrass; 125 g ai/ha): 15
- Plant response rating (scale of 0 to 100 where 0 is no effect and 100 is complete control) (blackgrass; 250 g ai/ha): 35
- pest or weed control at 125 g/ha (barnyardgrass [2]; 125 g ai/ha): 80%
- pest or weed control at 500 g/ha (barnyardgrass [2]; 500 g ai/ha, approx. 10 d): 90%
- pest or weed control at 125 g/ha (foxtail, giant; 125 g ai/ha): 90%
- pest or weed control at 500 g/ha (foxtail, giant; 500 g ai/ha): 100%
- plant injury at 125 g/ha (wheat; 125 g ai/ha): 30%
- plant injury at 500 g/ha (wheat; 500 g ai/ha): 60%
- Plant response rating (scale of 0 to 100 where 0 is no effect and 100 is complete control) (ryegrass, Italian; 31 g ai/ha): 5
- Plant response rating (scale of 0 to 100 where 0 is no effect and 100 is complete control) (ryegrass, Italian; 62 g ai/ha): 5
- Plant response rating (scale of 0 to 100 where 0 is no effect and 100 is complete control) (ryegrass, Italian; 125 g ai/ha): 5
- Plant response rating (scale of 0 to 100 where 0 is no effect and 100 is complete control) (ryegrass, Italian; 250 g ai/ha): 5

— patent US10681909B2, “Herbicidal triazoles” (FMC Corporation, priority 2014, dated 2020)
